The values that follow are results of earlier work, collected in patent US6420378B1, “Inhibition of abnormal cell proliferation with camptothecin and combinations including the same” (priority 1999, dated 2002).

In series [1] the test system is human colon cancer xenografts. Conditions: mouse, in vivo.
For series [2] the following is noted: clinical trials, administered intravenously.
The subject of another series is tumorigenic human cells. As to conditions: in vitro.
The test system of series [3] is nontumorigenic human cells. Conditions: in vitro.

Consider `CC[C@@]1(O)C(=O)OCc2c1cc1n(c2=O)Cc2cc3c(N)cccc3nc2-1` [9AC, 9-Amino-20(S)-Camptothecin], for which the “anticancer activity against human colon cancer xenografts” value in series [1] is on record as “high anticancer activity”.

On to `CC[C@@]1(O)C(=O)OCc2c1cc1n(c2=O)Cc2cc3c([N+](=O)[O-])cccc3nc2-1` [9NC, 9-nitrocamptothecin], for which the “growth of human tumor xenografts” value with human tumor xenografts (immunodeficient nude mice) was “inhibited the growth”. The “activity against human tumor xenograft models” value with human tumor xenografts (mouse, in vivo) was “high activity”. Besides, the “regression of human tumors established as xenografts” value in the series on human tumor xenografts (nude mice) was “induced regression”.

Regarding `CC[C@@]1(O)C(=O)OCc2c1cc1n(c2=O)Cc2cc3cc4c(cc3nc2-1)OCO4` [10,11 MD, 10,11-Methylendioxy-20(S)-Camptothecin], the “anticancer activity against human colon cancer xenografts” value in series [1] is “high anticancer activity”.

For the molecule `CC[C@@](O)(C(=O)[O-])c1cc2n(c(=O)c1CO)Cc1cc3ccccc3nc1-2.[Na+]` [20(S)-camptothecin Na+], in series [2], the potency entry is reported as “low potency” and the toxicity result was “high toxicity”.

With `CC[C@@]1(O)C(=O)OCc2c1cc1n(c2=O)Cc2cc3ccccc3nc2-1` [20(S)-camptothecin], the “effect on tumorigenic cells” value in the series with tumorigenic human cells is given as “cytotoxic”. In addition, in series [3], the “effect on nontumorigenic cells” value was “cytostatic”.
